# Source: patent US11673892B2, “Bicyclic compounds for use as RIP1 kinase inhibitors” (Genentech, Inc., priority 2017, dated 2023)
# Target: T1, human RIP1 kinase domain (2-375) (Homo sapiens, UniProt Q13546)
# T1 construct: Purified human RIP1 kinase domain (2-375) (50 nM); made in house; host or cells: baculovirus-infected insect cells
# T1 sequence (Q13546 2-375): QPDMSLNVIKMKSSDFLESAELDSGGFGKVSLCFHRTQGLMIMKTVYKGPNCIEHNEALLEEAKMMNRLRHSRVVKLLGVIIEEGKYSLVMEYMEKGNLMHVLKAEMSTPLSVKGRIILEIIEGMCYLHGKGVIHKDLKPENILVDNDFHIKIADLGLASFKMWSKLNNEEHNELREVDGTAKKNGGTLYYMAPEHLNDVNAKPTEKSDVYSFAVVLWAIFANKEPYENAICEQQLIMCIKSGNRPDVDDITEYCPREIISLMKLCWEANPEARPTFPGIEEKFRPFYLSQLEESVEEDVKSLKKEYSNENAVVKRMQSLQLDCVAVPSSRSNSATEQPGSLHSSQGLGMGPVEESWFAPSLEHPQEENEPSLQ
# Assay: RIP1 kinase inhibition biochemical assay (Transcreener ADP, fluorescence polarization)
# Settings: Ki app (Morrison tight-binding fit); 50 nM enzyme, 50 uM ATP, 2 hours incubation
# Method: RIP1 Kinase Inhibition Assays (Biochemical Assay)
# The compounds of the present invention were tested for their capacity to inhibit RIP1K activity as described below.
# The ability of the receptor interacting protein kinase (RIPK1) to catalyze the hydrolysis of adenosine-5′-triphosphate (ATP) is monitored using the Transcreener ADP (adenosine-5′-diphosphate) assay (BellBrook Labs). Purified human RIP1 kinase domain (2-375) (50 nM) derived from a baculovirus-infected insect cell expression system is incubated with test compounds for 2 hours in 50 mM Hepes buffer (pH 7.5) containing 30 mM MgCl2, 1 mM dithiothreitol, 50 uM ATP, 0.002% Brij-35, and 0.5% dimethyl sulfoxide (DMSO). Reactions are quenched by the addition of 1× Bell Brooks Stop buffer B (20 mM Hepes (ph7.5), 40 mM ethylenediaminetetraacetic acid and 0.02% Brij-35) containing an additional 12 mM EDTA and 55 ug/mL ADP2 antibody and 4 nM ADP-AlexaFluor® 633 tracer. The tracer bound to the antibody is displaced by the ADP generated during the RIP1K reaction, which causes a decrease in fluorescence polarization that is measured by laser excitation at 633 nm with a FP microplate reader M1000. Fractional activity was plotted against test article concentration. Using Genedata Screener software (Genedata; Basel, Switzerland), the data were fit to the tight-binding apparent inhibition constant (Ki^app) Morrison equation [Williams, J. W. and Morrison, J. F. (1979) The kinetics of reversible tight-binding inhibition. Methods Enzymol 63: 437-67]. The following equation was used to calculate fractional activity and Ki^app:
# [formula] where [E]T and [I]T are the total concentrations of active enzyme and test article, respectively.
# Exemplary compounds of the present invention are provided in Table 1 along with their physiochemical characterization and in vitro RIP1 kinase inhibitory activity data. “Method” in the first column of each table refers to the synthetic method(s) used to prepare each compound as shown in the Examples above. In certain examples, chiral column retention times (min) are provided for certain stereoisomers. Unless otherwise specified, the stereochemistry shown in each structure represents relative configuration of a single stereoisomer, and absolute configuration (i.e., “R” and/or “S”) is arbitrarily assigned. In some embodiments, where the Method is described to include the separation of stereoisomers, a single stereoisomer of a compound of Table 1 is provided.
row,SMILES,Ki
1,"C=C(CC)c1nc2n(n1)[C@H](c1ccccc1)C[C@@H]2F (single isomer, unassigned) [Example 97]",200 nM
2,"Fc1ccccc1[C@@H]1CCc2nc(CC3CC3)nn21 (single isomer, unassigned) [Example 98]",190 nM
3,"F[C@H]1C[C@@H](c2ccccc2)n2nc(-c3cnoc3)nc21 (single isomer, unassigned) [Example 99]",140 nM
4,"N#CC1CN(c2nc3n(n2)[C@H](c2ccccc2)C[C@@H]3F)C1 (single isomer, unassigned) [Example 100]",250 nM
5,"CC1([C@@H](O)c2nc3n(n2)[C@H](c2ccccc2)C[C@@H]3F)CC1 (single isomer, unassigned) [Example 105]",350 nM
6,"O[C@@H](c1cc2n(n1)[C@@H](c1ccccc1)C[C@H]2F)C1CC1 (single isomer, unassigned) [Example 114]",100 nM
7,"FC(F)c1nc2n(n1)[C@@H](c1ccccc1)C[C@H]2F (single isomer, unassigned) [Example 118]",180 nM
8,CCC(O)c1nc2n(n1)[C@H](c1ccccc1)C[C@@H]2F (stereo partly shown) [Example 1],406 nM
9,"OC(c1nc2n(n1)C(c1ccccc1)CC2F)C(F)(F)F [Example 4, cis-(5S,7S)-2,2,2-trifluoro-1-(7-fluoro-5-phenyl-6,7-dihydro-5H-pyrrolo[1,2-b][1,2,4]triazol-2-yl)ethanol]",470 nM

# Molecules with a lower Ki, results first:
row,Ki,SMILES
1,63 nM,"C[C@@H]1C[C@H]1c1nc2n(n1)[C@H](c1ccccc1)C[C@@H]2F (single isomer, unassigned) [Example 96]"
2,4 nM,"Fc1ccccc1[C@@H]1C[C@H](F)c2nc(C(F)(F)C3CC3)nn21 (single isomer, unassigned) [Example 104]"
3,3.5 nM,"F[C@H]1C[C@@H](c2ccccc2)n2nc([C@H](F)C3CC3)nc21 (single isomer, unassigned) [Example 107]"
4,12 nM,"F[C@H](c1nc2n(n1)[C@H](c1ccccc1)C[C@@H]2F)C1CC1 (single isomer, unassigned) [Example 109]"
5,3.1 nM,"[2H][C@](F)(c1nc2n(n1)[C@H](c1ccccc1)C[C@@H]2F)C1CC1 (single isomer, unassigned) [Example 110]"
6,4.9 nM,"[2H][C@@](F)(c1nc2n(n1)[C@H](c1ccccc1)C[C@@H]2F)C1CC1 (single isomer, unassigned) [Example 111]"
7,81 nM,"O[C@H](c1cc2n(n1)[C@@H](c1ccccc1)C[C@H]2F)C1CC1 (single isomer, unassigned) [Example 115]"
8,7.3 nM,"[2H]C([2H])(c1nc2n(n1)[C@H](c1ccccc1)C[C@@H]2F)C1CC1 (single isomer, unassigned) [Example 116]"
9,16 nM,"F[C@H]1C[C@@H](c2ccccc2)n2nc(CC3CCC3)nc21 (stereo in doubt) [Example 94, (5S,7S)-2-(cyclobutylmethyl)-7-fluoro-5-phenyl-6,7-dihydro-5H-pyrrolo[1,2-b][1,2,4]triazole]"
10,51 nM,"CCC(F)c1nc2n(n1)C(c1ccccc1)CC2F (stereo not drawn) [Example 3, Cis-7-fluor-2-(1-fluoropropyl)-5-phenyl-6,7-dihydro-5H-pyrrolo[1,2-b][1,2,4]triazole]"
11,69 nM,"CCC(C)(F)c1nc2n(n1)C(c1ccccc1)CC2F [Example 6, Cis-(5S,7S)-2-(1-fluoro-1-methyl-propyl)-7-fluoro-5-phenyl-6,7-dihydro-5H-pyrrolo[1,2-b][1,2,4]triazole]"
12,4 nM,"F[C@H]1C[C@@H](c2ccccc2)n2nc(CC3CC3(F)F)nc21 (stereo partly drawn) [Example 20, (5S,7S)-2-[(2,2-difluorocyclopropyl)methyl]-7-fluoro-5-phenyl-6,7-dihydro-5H-pyrrolo[1,2-b][1,2,4]triazole]"
13,70 nM,"F[C@H]1C[C@@H](c2ccccc2)n2nc(C3CC3(F)F)nc21 (stereo partly drawn) [Example 28, (5S,7S)-2-(2,2-difluorocyclopropyl)-7-fluoro-5-phenyl-6,7-dihydro-5H-pyrrolo[1,2-b][1,2,4]triazole]"
